pIC50, pKi: −log10 of the molar value.
Experiments:
[1] = target: T1, Bcl-2-related protein A1 (Homo sapiens, UniProt Q16548)
T1 sequence (Q16548 whole entry): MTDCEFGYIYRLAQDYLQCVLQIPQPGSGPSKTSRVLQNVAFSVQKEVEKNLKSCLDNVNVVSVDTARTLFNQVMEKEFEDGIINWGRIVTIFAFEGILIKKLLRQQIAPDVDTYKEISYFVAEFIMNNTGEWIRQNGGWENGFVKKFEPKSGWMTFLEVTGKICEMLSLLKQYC
Description: Inhibition of recombinant Bfl-1 (1-152) (unknown origin) by TR-FRET assay

[2] = target: T1, Bcl-2-related protein A1; assay: Inhibition of Bfl-1 (unknown origin) assessed as inhibition constant
[3] = target: T2, Induced myeloid leukemia cell differentiation protein Mcl-1 (Homo sapiens, UniProt Q07820); assay: Inhibition of GST fused Mcl-1 (unknown origin) incubated for 5 min by TR-FRET assay
T2 sequence (Q07820 whole entry, the tested form may be a part): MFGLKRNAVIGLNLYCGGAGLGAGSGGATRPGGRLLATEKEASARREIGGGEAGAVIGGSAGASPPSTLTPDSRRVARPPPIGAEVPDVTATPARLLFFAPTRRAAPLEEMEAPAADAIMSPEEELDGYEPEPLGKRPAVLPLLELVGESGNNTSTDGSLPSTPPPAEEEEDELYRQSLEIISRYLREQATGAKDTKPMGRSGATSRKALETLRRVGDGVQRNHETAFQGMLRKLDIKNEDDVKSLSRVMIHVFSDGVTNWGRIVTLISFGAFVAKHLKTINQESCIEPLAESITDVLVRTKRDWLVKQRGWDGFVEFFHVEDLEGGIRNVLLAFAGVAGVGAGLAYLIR

[4] = target: T3, Bcl-2-like protein 2 (Homo sapiens, UniProt Q92843); assay: Inhibition of GST fused Bcl-w (unknown origin) incubated for 5 min by TR-FRET assay
T3 sequence (Q92843 whole entry): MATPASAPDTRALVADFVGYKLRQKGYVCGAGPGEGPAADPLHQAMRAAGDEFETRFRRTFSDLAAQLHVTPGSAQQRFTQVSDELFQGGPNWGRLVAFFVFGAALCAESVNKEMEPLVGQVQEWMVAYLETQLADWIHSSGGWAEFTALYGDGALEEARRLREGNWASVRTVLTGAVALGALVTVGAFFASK

[5] = target: Apoptosis regulator Bcl-2 (Homo sapiens, UniProt P10415); assay: Inhibition of GST fused Bcl-2 (unknown origin) incubated for 5 min by TR-FRET assay
Sequence of Apoptosis regulator Bcl-2 (P10415 whole entry, the tested form may be a part): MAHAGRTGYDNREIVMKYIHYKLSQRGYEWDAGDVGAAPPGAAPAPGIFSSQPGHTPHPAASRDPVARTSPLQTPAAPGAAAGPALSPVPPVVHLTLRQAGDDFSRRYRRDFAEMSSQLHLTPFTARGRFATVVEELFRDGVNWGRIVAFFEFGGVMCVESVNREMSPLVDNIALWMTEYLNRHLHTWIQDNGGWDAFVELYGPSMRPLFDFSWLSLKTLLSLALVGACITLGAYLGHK

[6] = target: Bcl-2-like protein 1 (Homo sapiens, UniProt Q07817); assay: Inhibition of GST fused Bcl-xL (unknown origin) incubated for 5 min by TR-FRET assay
Sequence of Bcl-2-like protein 1 (Q07817 whole entry, the tested form may be a part): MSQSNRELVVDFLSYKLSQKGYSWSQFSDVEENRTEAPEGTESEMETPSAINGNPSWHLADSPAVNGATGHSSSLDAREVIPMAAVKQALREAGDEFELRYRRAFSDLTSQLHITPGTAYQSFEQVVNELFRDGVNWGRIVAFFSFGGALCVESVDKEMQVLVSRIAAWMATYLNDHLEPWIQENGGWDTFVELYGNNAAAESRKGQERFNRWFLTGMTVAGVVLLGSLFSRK

[7] = target: T2, Induced myeloid leukemia cell differentiation protein Mcl-1
Description: Inhibition of Mcl-1 (unknown origin) assessed as inhibition constant

[8] = target: T1, Bcl-2-related protein A1; assay: Inhibition of Bfl-1 (unknown origin) incubated for 30 min by fluorescence polarization assay
[9] = target: T1, Bcl-2-related protein A1; assay: Inhibition of GST-tagged Bfl-1 (unknown origin) incubated for 60 min by TR-FRET assay

SMILES	pIC50 [1]	pKi [2]	also measured
O=C(O)CSc1cc(NS(=O)(=O)c2cccs2)c2ccccc2c1O	5.34	–	–
CCOC(=O)CS(=O)(=O)c1nc(-c2ccc(F)cc2)cc(C(F)(F)F)n1	–	–	pIC50 [3]: < 4.00; pIC50 [4]: < 4.00; pIC50 [5]: < 4.00; pIC50 [6]: < 4.00
O=C(O)CSc1cc(NS(=O)(=O)c2ccc(Br)cc2)c2ccccc2c1O	5.08	5.50	pKi [7]: 5.72
COc1ccc(C(c2c(-c3ccccc3)n(O)c3ccccc23)N2CCN(C)CC2)cc1 (stereo unspecified)	–	–	pIC50 [8]: 6.10; pIC50 [9]: 5.85
CC(C)=CCC[C@]1(C)C=Cc2c(O)c3c(c(CC=C(C)C)c2O1)O[C@]12C(=C[C@@H]4C[C@H]1C(C)(C)O[C@@]2(C/C=C(/C)C(=O)O)C4=O)C3=O [GAMBOGIC ACID]	6.75	–	–

The next lines start with results.

pIC50 [1]	pKi [2]	SMILES	also measured
–	< 4.30	COc1ccc(S(=O)(=O)Nc2cc(SCC(=O)O)c(OC)c3ccccc23)cc1	–
–	< 4.30	COC(=O)CSc1cc(NS(=O)(=O)c2ccc(-c3ccccc3)cc2)c2ccccc2c1OC	–
–	5.66	O=C(O)CSc1cc(NS(=O)(=O)c2ccc(-c3ccccc3)cc2)c2ccccc2c1O	pKi [7]: 5.33
–	< 4.30	COc1c(SCC(=O)O)cc(NS(=O)(=O)c2ccc(C)cc2)c2ccccc12	–

Source: ChEMBL document CHEMBL5335817, “Discovery and optimization of (2-naphthylthio)acetic acid derivative as selective Bfl-1 inhibitor” (Bioorg Med Chem Lett, 2024)
